Three molecules from ChEMBL document CHEMBL1177749, “Tetracyclic chromane derivatives from Rhododendron anthopogonoides” (J Nat Prod, 2010) can be followed below.

The structures appear in SMILES notation.

The subject of this test is Mast cell. The experiment in a line: Inhibition of compound 48/80-induced histamine release in Wister rat Peritoneal mast cells. In kind it is functional, cell-based.
For `C/C(=C\CC[C@@]1(C)C=Cc2c(cc(C)c(C(=O)O)c2O)O1)CC(=O)CC(C)C` [ANTHOPOGOCHROMENE A], half-maximal inhibition (IC50) was put at 63 µM.

Regarding `Cc1cc2c(c(O)c1C(=O)O)[C@H]1[C@@H]3[C@@](C)(CCC[C@]3(C)O2)[C@H]1C(=O)CC(C)C` [ANTHOPOGOCHROMANE], inhibition was half-maximal at 114 µM (IC50). This IC50 is about 1.8-fold higher than that of the molecule before.

For the molecule `COc1ccc2c(c1)c(CC(=O)O)c(C)n2C(=O)c1ccc(Cl)cc1` [INDOMETHACIN], the IC50 (as a rule, the concentration that gives 50% inhibition) was determined as 250 µM.
